Values joined by “and” are separate entries in the source; they are usually repeats but may differ in a detail not shown here. Equal entries are not always repeated. Square brackets hold non-standard residues; d marks the D form. Peptide text beside a SMILES is read from it. * marks the point of attachment. dPhe(4-NHCONH2) = NC(=O)Nc1ccc(C[C@@H](N)C(=O)O)cc1; Dihydroorotyl(S) = O=C1C[C@@H](C(=O)*)NC(=O)N1; dPhe(4-NH2) = Nc1ccc(C[C@@H](N)C(=O)O)cc1; dPhe(4-Cl) = N[C@H](Cc1ccc(Cl)cc1)C(=O)O; Phe(4-NH2) = Nc1ccc(C[C@H](N)C(=O)O)cc1; d2Nal = N[C@H](Cc1ccc2ccccc2c1)C(=O)O; Lys(iPr) = CC(C)NCCCC[C@H](N)C(=O)O; NMeY = CN[C@@H](Cc1ccc(O)cc1)C(=O)O; d3Pal = N[C@H](Cc1cccnc1)C(=O)O
Tests used:
[1] = system: bovine pituitary cells; assay: GnRH-induced LH secretion of bovine pituitary cells in vitro (Example 9); type: cell-based; details: for LH conc in medium: 300 μg cetrorelix, 340 μg Degarelix, 300 ug Abarelix, 130 μg Relugolix
Description: Methods: The heads of mature, non-pregnant cows (n=4) were collected from a local abattoir and the pituitary glands were dissected within 60 minutes of slaughter. Immediately following the dissection, the pituitaries were submerged into ice-cold collection medium. The pituitaries were washed 3 times in collection media and the neurohypophysis was dissected from the adenohypophysis. Using a scalpel, the adenohypophysis (anterior pituitary) was sliced into 1 mm×1 mm pieces and transferred to a 50 mL falcon tube containing DMEM medium with 0.5% BSA. The tissue pieces were washed by manually agitating the tube for 1 minute. The tissue pieces were allowed to settle to the bottom of the tube, then the supernatant was discarded. The macerated pieces were transferred to a 15 mL falcon tube with the dissociation medium and incubated at 37° C. for 60 minutes. Every 10 minutes the tube was vortexed for 1 minute to ensure the tissue was completely dissociated. The dissociation media was inactivated using DMEM with 10% SFB then manually agitating the tube for 1 minute. The dissociated cells were placed in a 40 μm cell strainer to remove the undigested tissue and placed into two 15 mL falcon tubes. The cells were centrifuged at 200×g for 10 minutes and the supernatant was discarded. The cells were washed three times by resuspending in DMEM solution with red blood cell lysing buffer followed by centrifuged at 200×g for 10 minutes. Then the cells were washed with DMEM solution and centrifuged at 200×g for 10 minutes. Following the last centrifugation, the cells were resuspended in DMEM, and the trypan blue test was used to determine the cell count and assess viability. DMEM with 10% fetal bovine serum (FBS) was treated with 10% charcoal-dextran and passed through a 0.2 μm filter. The cells were then plated in a 24-well tissue culture plate with a concentration of 1×10^6 viable cells per well and incubated at 37° C. for 24 hours. The following day, to starve the cells, the culture media was replaced with DMEM without FBS and left to incubate for another 24 hours.
Treatments: Based on the results from the pilot study, the selected concentration for Cetrorelix (cetrorelix acetate) was 300 μg. The cetrorelix was dissolved in trace levels of DMSO then dissolved in ultrapure water. To standardize the treatments, the nanomole concentration of each GnRH antagonist were matched with the cetrorelix nanomole concentration. The final concentration used for further experiments were: 300 μg for cetrorelix, 340 μg for Degarelix (Degarelix acetate), 300 ug for Abarelix (Abarelix acetate). Both degarelix and abarelix were dissolved ultrapure water. The equivalent Relugolix nanomole concentration was 130 μg which was dissolved in methanol. Treatment cells were preincubated for 60 minutes with either Cetrorelix, Degarelix, Relugolix or Abarelix. Following the preincubation, the cells were incubated for 30 minutes with either 1 nM or 10 nM of GnRH (Gonadorelin, Fertagyl, Merck Animal Health). GnRH doses were based on pituitary study by Paolicchi et al. 1999). The media were collected and centrifuged at 200×g for 10 minutes to remove the cells. Positive (Control) group was only treated with 1 nM and 10 nM of GnRH to determine the maximum LH secretion. LH concentrations in the culture medium was measured by a commercial bovine specific ELISA kit and reported as mIU/ml of medium.

[2] = system: GnRH-induced plasma LH levels and ovulation; assay: GnRH challenge in heifers pre-treated with GnRH antagonists: plasma LH and ovulation (Example 10); type: in vivo, cattle; details: for Plasma LH response to GnRH challenge: heifers pre-treated with antagonist 60 minutes before GnRH injection; for Ovulation (Yes/No) within 48 hr of GnRH treatment / Plasma LH concentration at 60 minute, group Mean / Plasma LH concentration at 120 minute, group Mean / Plasma LH concentration at −60 minute, group Mean / Plasma LH concentration at 0 minute, group Mean: heifers; for Ovulation (Yes/No) within 48 hr of GnRH treatment / Dominant follicle diameter (mm) 48 hr after GnRH Injection / Dominant follicle diameter (mm) at GnRH injection: 3 mg antagonist 60 min before GnRH; for Plasma LH concentration at 60 minute, group Mean / Plasma LH concentration at 120 minute, group Mean / Plasma LH concentration at 60 minute / Plasma LH concentration at 120 minute: after GnRH injection; for Plasma LH concentration at −60 minute, group Mean / Plasma LH concentration at −60 minute: time of 3 mg GnRH antagonist injection; for Plasma LH concentration at 0 minute, group Mean / Plasma LH concentration at 0 minute: time of GnRH injection; for Dominant follicle diameter (mm) 48 hr after GnRH Injection / Dominant follicle diameter (mm) at GnRH injection / Plasma LH concentration at 60 minute / Plasma LH concentration at 120 minute / Plasma LH concentration at −60 minute / Plasma LH concentration at 0 minute: individual heifers; for Plasma LH concentration at 60 minute / Plasma LH concentration at 120 minute / Plasma LH concentration at 0 minute: 3 mg antagonist at −60 min; for Plasma LH concentration at −60 minute: 60 mins before GnRH
Description: Methods: Pubertal heifers (n=10) with a functional CL were selected at the Federal University of Santa Maria. Heifers were administered an intramuscular (i/m) injection of prostaglandin F2a analog (PGF; Lutalyse 5 ml or Estrumate 2 ml) to induce CL regression. Heifers were randomly placed into 4 treatment groups at the time of PGF injection: Trt1 (n=2, 3 mg of Abarelix); Trt2 (n=2, 3 mg of Degarelix), Trt3 (n=2, 3 mg of Relugolix) and Trt 4 (n=4; Cetrorelix 3 mg). Heifers were treated with these GnRH antagonists 1.5 days (36 hr) after the PGF injection and the GnRH antagonist treatment time point was defined as −60 mins. Heifers were treated with GnRH ([…] of Fertagyl i/m) at 0 mins to induce ovulation. Jugular venipuncture plasma samples were collected every 60 minutes for 3 hours (from −60 min to 120 minutes, with t=0 min when GnRH is administered). Plasma samples were kept at 4C overnight and LH analysis was performed the next day using a bovine-specific ELISA commercial kit. Transrectal ultrasonography was conducted to the time of GnRH injection (Time 0 hr) and 2 days later (48 hr after GnRH injection) to record the size of dominant follicle and to detect ovulation after treatment.

[3] = target: GnRH receptor on bovine pituitary gonadotrophs (bovine) (UniProt P32236); assay: cell-based or functional assay
UniProt P32236, sequence (P32236 whole entry): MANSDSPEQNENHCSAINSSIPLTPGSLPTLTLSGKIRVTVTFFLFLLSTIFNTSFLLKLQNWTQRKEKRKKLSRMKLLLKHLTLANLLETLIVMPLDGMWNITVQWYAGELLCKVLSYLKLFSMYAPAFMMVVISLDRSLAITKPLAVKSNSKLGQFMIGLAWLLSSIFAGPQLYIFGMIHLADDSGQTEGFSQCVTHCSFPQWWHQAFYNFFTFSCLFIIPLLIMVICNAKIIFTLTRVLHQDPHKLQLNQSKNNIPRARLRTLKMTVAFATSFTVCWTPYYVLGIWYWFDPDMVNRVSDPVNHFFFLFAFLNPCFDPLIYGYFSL

[4] = system: dominant follicle; details: acyline-treated animals, multiple injections from just before ovulation; cited from earlier work
[5] = challenged with 1 nM GnRH 30 minutes after 60 minutes preincubation
[6] = challenged with 10 nM GnRH 30 minutes after 60 minutes preincubation

| LH conc (mIU/mL) in medium from bovine pituitary cells in vitro, preincubated 60 min with the antagonist, then challenged 30 min with 1 nM GnRH (control without antagonist: 2.01) [3] [mIU/mL] | LH conc (mIU/mL) in medium from bovine pituitary cells in vitro, preincubated 60 min with the antagonist, then challenged 30 min with 10 nM GnRH (control without antagonist: 2.49) [3] [mIU/mL] | Compound | LH conc in medium [1, 5] [mIU/mL] | LH conc in medium [1, 6] [mIU/mL] | Plasma LH response to GnRH challenge [2] | Ovulation (Yes/No) within 48 hr of GnRH treatment [2] | Plasma LH concentration at 60 minute, group Mean [2] [mIU/ml] | Plasma LH concentration at 120 minute, group Mean [2] [mIU/ml] | Plasma LH concentration at −60 minute, group Mean [2] [mIU/ml] | Plasma LH concentration at 0 minute, group Mean [2] [mIU/ml] | Dominant follicle diameter (mm) 48 hr after GnRH Injection [2] | Dominant follicle diameter (mm) at GnRH injection [2] | Plasma LH concentration at 60 minute [2] | Plasma LH concentration at 120 minute [2] | Plasma LH concentration at −60 minute [2] | Plasma LH concentration at 0 minute [2] | further results |
| --- | --- | --- | --- | --- | --- | --- | --- | --- | --- | --- | --- | --- | --- | --- | --- | --- | --- |
| – | – | CC(=O)N[C@H](Cc1ccc2ccccc2c1)C(=O)N[C@H](Cc1ccc(Cl)cc1)C(=O)N[C@H](Cc1cccnc1)C(=O)N[C@@H](CO)C(=O)N[C@@H](Cc1ccc(NC(=O)[C@@H]2CC(=O)NC(=O)N2)cc1)C(=O)N[C@H](Cc1ccc(NC(N)=O)cc1)C(=O)N[C@@H](CC(C)C)C(=O)N[C@@H](CCCCNC(C)C)C(=O)N1CCC[C@H]1C(=O)N[C@H](C)C(N)=O [Degarelix, N-acetyl-3-(2-naphthyl)-D-alanyl-4-chloro-D-phenylalanyl-3-(3-pyridyl)-D-alanyl-L-seryl-4-((S)-dihydroorotamido)-L-phenylalanyl-4-ureido-D-phenylalanyl-L-leucyl-N6-isopropyl-L-lysyl-L-prolyl-D-alaninamide] (Ac-[d2Nal][dPhe(4-Cl)][d3Pal]S[Phe(4-NH2)](Dihydroorotyl(S))[dPhe(4-NHCONH2)]L[Lys(iPr)]P[dA]-NH2) | 1.33 | 1.21 | did not register an increase in LH | No | 8.60 | 8.62 | 8.14 | 8.89 | 12 mm and 13.2 mm | 14 mm and 15.1 mm | 4.87 mIU/ml and 12.32 mIU/ml | 5.25 mIU/ml and 11.98 mIU/ml | 5.54 mIU/ml and 10.74 mIU/ml | 5.37 mIU/ml and 12.41 mIU/ml | Plasma LH response to GnRH challenge ([2]; listed as degarelix): block the GnRH-induced LH release; Ovulation (Yes/No) within 48 hr of GnRH treatment ([2]; listed as degarelix): prevent GnRH-induced ovulations |
| – | – | CONC(=O)Nc1ccc(-c2sc3c(c2CN(C)C)c(=O)n(-c2ccc(OC)nn2)c(=O)n3Cc2c(F)cccc2F)cc1 [Relugolix, 1-[4-[1-[(2,6-difluorophenyl)methyl]-5-[(dimethylamino)methyl]-3-(6-methoxypyridazin-3-yl)-2,4-dioxothieno[2,3-d]pyrimidin-6-yl]phenyl]-3-methoxyurea] | 1.72 | 1.47 | did not register an increase in LH | No | 13.94 | 6.97 | 18.48 | 19.92 | 10 mm | 9.8 mm and 12.1 mm | 22.66 mIU/ml and 5.22 mIU/ml | 9.71 mIU/ml and 4.23 mIU/ml | 30.96 mIU/ml and 5.99 mIU/ml | 33.09 mIU/ml and 6.75 mIU/ml | Plasma LH response to GnRH challenge ([2]; listed as relugolix): block the GnRH-induced LH release; Ovulation (Yes/No) within 48 hr of GnRH treatment ([2]; listed as relugolix): prevent GnRH-induced ovulations |
| 1.33 | 1.21 | Degarelix (Degarelix acetate) (peptide) | – | – | – | – | – | – | – | – | – | – | – | – | – | – | – |
| – | – | CC(=O)Nc1ccc(C[C@H](NC(=O)[C@H](CO)NC(=O)[C@@H](Cc2cccnc2)NC(=O)[C@@H](Cc2ccc(Cl)cc2)NC(=O)[C@@H](Cc2ccc3ccccc3c2)NC(C)=O)C(=O)N[C@H](Cc2ccc(NC(C)=O)cc2)C(=O)N[C@@H](CC(C)C)C(=O)N[C@@H](CCCCNC(C)C)C(=O)N2CCC[C@H]2C(=O)N[C@H](C)C(N)=O)cc1 [acyline, N-acetyl-3-(2-naphthyl)-D-alanyl-4-chloro-D-phenylalanyl-3-(3-pyridyl)-D-alanyl-L-seryl-4-acetamido-L-phenylalanyl-4-acetamido-D-phenylalanyl-L-leucyl-N6-isopropyl-L-lysyl-L-prolyl-D-alaninamide] (Ac-[d2Nal][dPhe(4-Cl)][d3Pal]S[Phe(4-NH2)](Ac)[dPhe(4-NH2)](Ac)L[Lys(iPr)]P[dA]-NH2) | – | – | – | – | – | – | – | – | – | – | – | – | – | – | Maximum diameter of dominant follicle [4]: 7.7 mm |
| 2.21 | 2.15 | Abarelix (Abarelix acetate) (peptide) | – | – | – | – | – | – | – | – | – | – | – | – | – | – | – |
| – | – | CC(=O)N[C@H](Cc1ccc2ccccc2c1)C(=O)N[C@H](Cc1ccc(Cl)cc1)C(=O)N[C@H](Cc1cccnc1)C(=O)N[C@@H](CO)C(=O)N(C)[C@@H](Cc1ccc(O)cc1)C(=O)N[C@H](CC(N)=O)C(=O)N[C@@H](CC(C)C)C(=O)N[C@@H](CCCCNC(C)C)C(=O)N1CCC[C@H]1C(=O)N[C@H](C)C(N)=O [Abarelix, N-acetyl-3-(2-naphthyl)-D-alanyl-4-chloro-D-phenylalanyl-3-(3-pyridyl)-D-alanyl-L-seryl-N-methyl-L-tyrosyl-D-asparagyl-L-leucyl-N6-isopropyl-L-lysyl-L-prolyl-D-alaninamide] (Ac-[d2Nal][dPhe(4-Cl)][d3Pal]S[NMeY][dN]L[Lys(iPr)]P[dA]-NH2) | 2.21 | 2.15 | did not register an increase in LH | No | 10.49 | 11.23 | 9.43 | 11.26 | 14 mm and 12 mm | 14.4 mm and 13.6 mm | 8.96 mIU/ml and 12.02 mIU/ml | 9.32 mIU/ml and 13.14 mIU/ml | 8.65 mIU/ml and 10.21 mIU/ml | 8.98 mIU/ml and 13.54 mIU/ml | Effect on LH suppression ([1]; 1 nM GnRH challenge): no effect; Effect on LH concentration ([1]; 10 nM challenge): modest decrease; Plasma LH response to GnRH challenge ([2]; listed as abarelix): block the GnRH-induced LH release; Ovulation (Yes/No) within 48 hr of GnRH treatment ([2]; listed as abarelix): prevent GnRH-induced ovulations |

Source: US20260034192A1 (University of Saskatchewan, priority 2022, published 2026)
